These results are taken from patent publication US12594258B2, “Inhibitors of MHC-I Nef downmodulation for treating HIV” (priority 2019, dated 2026).

Series [1] relates to lysosome neutralization in primary CD4+ T cells. The experiment in a line: Lysotracker Red flow cytometry assay in primary CD4+ T cells. It is filed as cell-based, human. As for the experimental part: Cells were treated with plecomacrolides at a density of 1×10^6 cells/mL for 24 hours, then treated with 100 nM LysoTracker Red DND-99 (Fisher, L7528) in PBS at a density of 1×10^6 cells/mL for 1 hour at 37° C., washed twice in PBS, and fixed in 2% PFA before flow cytometric analysis on a BioRad Ze5 flow cytometer.
Lysotracker Flow Cytometry Assay. Cells were treated with plecomacrolides at a density of 1×10^6 cells per milliliter for 24 h, and then treated with 100 nM LysoTracker Red DND-99 in phosphate-buffered saline (PBS) at a density of 1×10^6 cells per milliliter for 1 h at 37° C., washed twice in PBS, and fixed in 2% paraformaldehyde (PFA) before flow cytometric analysis on a flow cytometer.
In general terms: In flow cytometry, cells or beads pass a laser one at a time.

Series [2] deals with AP-1:Nef:MHC-I complex. The experiment in a line: HLA-A2 coimmunoprecipitation in CEM-A2 cells expressing Nef. The series is classed as cell-based. The settings on record: 1.25 nM, compared to NH4Cl. The procedure:
Immunoprecipitation of CEM cell lysates with BB7.2-conjugated beads was performed as previously described. Briefly, 25×10^6 CEM-A2 cells were transduced with Nef-expressing or control adenovirus. 48 hours post-infection, cells were counted and resuspended at a density of 1×10^6 cells/mL R10 supplemented with 35 mM NH4Cl, 1.25 nM CMA, or solvent control for 24 hours. Cells were pelleted, washed twice in PBS, and lysed in 1% digitonin lysis buffer (1% digitonin (Wako, 043-21371), 100 mM NaCl, 50 mM Tris, pH 7.0, 1 mM CaCl2, and 1 mM MgCl2) as previously described. 1% of the lysate was removed for input controls. […] After pulldown, resin was washed five times in 0.1% digitonin wash buffer, and proteins were eluted by incubating in 150 mM dithiothreitol (Invitrogen) for 30 minutes at 37° C. and analyzed by western blot.
HLA-A2 Coimmunoprecipitation. […] Then, 48 h post infection, cells were counted and resuspended at a density of 1×10^6 cells per milliliter R10 supplemented with 35 mM NH4Cl, 1.25 nM CMA, or solvent control for 24 h. […] After pulldown, resin was washed five times in 0.1% digitonin wash buffer, and proteins were eluted by incubating in 150 mM dithiothreitol (DTT) for 30 min at 37° C. and analyzed by Western blot.

Series [3] deals with AP-1:Nef:MHC-I complex. Kind of series: GST-tagged MHC-I cytoplasmic tail pull down assay. The series is classed as binding. The text has this: The His6- and GST-tagged AP-1 core, mouse AP1M1 (157-423) (referred as μ1-CTD), human Arf1 (17-181)-Q71L, human MHC-I (338-365)-NL4-3 Nef, HIV-1 NL4-3 Nef constructs and protein purification were previously described. For GST pull down assay, codon-optimized human MHC-I (338-365) was subcloned into pGST parallel2 vector using BamHI/Xhol sites, fused an N-terminal GST tag and a TEV cleavage site. PCR encoding HIV-1 Nef or SlVsmm Nef fused with GFP was subcloned into LIC 2BT vector (Macrolab), expressed as a TEV-cleavable N-terminal His6 tag and C-terminal uncleavable GFP tag.
GST tagged MHC-I tail was expressed in BL21 (DE3) star cells by induction at 20° C. overnight. The purification was carried out using glutathione-Sepharose 4B resin, the elution was then subjected to a HiLoad 16/60 Superdex 75 column in the buffer of 20 mM Tris pH 8, 150 mM NaCl, 0.1 mM TCEP.

Series [4] deals with Nef alleles from HIV clades A, B, C, D, F, and F/B and SIV. The experiment in a line: Nef alleles of diverse HIV clades and SIV (MSCV-IRES-GFP) in CEM cells expressing MHC-I alleles. The series is classed as cell-based. As for the experimental part:
(ii) MSCV: Murine stem cell virus internal ribosome entry site GFP (pMIG) constructs containing various nef alleles were generated as previously described. Retroviral supernatants were prepared using BOSC cells transfected with the pMIG constructs, the retrovirus packaging vector pCL-Eco (65) and pHCMV-G using PEI as described above for HIV. Viral supernatants were collected 48 h post-transfection, clarified by centrifugation, stored at −80° C., and transductions were performed as described for HIV constructs.

Series [5] in a line: Mouse in vivo tolerability. More on the design: species or system mice. As for the experimental part:
FIG. 8A is a schematic representation of experiments for FIG. 8B-D. Five mice per group received injections of CMA every 2 days for 10 doses. Blood plasma and lymph nodes were harvested from mice sacrificed 2 hours after the final injection.
Mouse in vivo Assays. To further examine the tolerability of CMA, preliminary studies were performed in two groups of mice injected with different doses of CMA every other day for 18 days (FIG. 8A). […] In a separate experiment, plasma harvested from treated mice inhibited Nef in our in vitro assay (FIG. 8F). Taken together, these promising preliminary studies provide evidence that CMA is both efficacious and tolerable in vivo.

The EC50 is the concentration at which the effect is half-maximal. For `C/C=C/[C@H]1O[C@@](O)([C@@H](C)[C@H](O)[C@H](C)[C@H]2OC(=O)/C(OC)=C/C(C)=C/[C@@H](C)[C@@H](O)[C@@H](CC)[C@@H](O)[C@H](C)C/C(C)=C/C=C/[C@@H]2OC)C[C@@H](O[C@H]2C[C@@H](O)[C@H](OC(N)=O)[C@@H](C)O2)[C@@H]1C` [CMA, concanamycin A], the “difference between EC50 for lysosome neutralization and EC50 for Nef inhibition” value in series [1] turned out to be 27 fold. This compound also registered an EC50 in series [1] (24 hours) of 1.9 nM. Besides, the “abundance of Nef and AP-1 subunits associating with HLA-A2” value with AP-1:Nef:MHC-I complex [2] was “reproducible reduction in the abundance of Nef, AP-1μ, and AP-1μ1 subunits associating with HLA-A2”. In addition, in the series on AP-1:Nef:MHC-I complex [3], the “pulldown of NL4-3 Nef, SIV Nef or AP-1 μ1-CTD by GST-tagged MHC-I cytoplasmic tail” value is reported as “did not alter pulldown”. For the same compound, the “surface expression of HA-tagged HLA-A*02, HLA-B*08, HLA-B*27, HLA-B*57” value in series [4] (CEM cells, each Nef allele) is recorded as “restored MHC-I surface expression in every context”. Also, the “HLA-A2 expression in cells expressing diverse nef alleles” value in series [4] (CEM-A2 cells) is given as “restored expression of HLA-A2 in cells expressing each nef allele”. In series [5] (two doses, injected every other day for 18 days), the “toxicity based on behavior, fur and weight loss” value was “Neither dose showed toxicity”. Further, the body mass entry in series [5] (weighed prior to each dose) is “no loss in body mass and no dose effect”. Further, in the series on HIV Nef (2.5 nM and 0.5 nM), the “restoration of CD4 to the cell surface of Nef-expressing cells” value was “neither dose of CMA restored CD4” and the “restoration of cell-surface MHC-I in Nef-expressing cells” value was “restored equally in both conditions”. In addition, the “Nef-mediated degradation of HLA-A2 and CD4 (Western blot)” value in the series with HIV Nef (high dose (2.5 nM)) was “inhibited Nef-mediated degradation of both HLA-A2 and CD4”. For the same compound, in the series on HIV Nef (low dose (0.5 nM)), the “degradation of CD4 (Western blot)” value is “did not prevent degradation of CD4” and the “degradation of MHC-I in Nef-expressing cells (Western blot)” value is “MHC-I was not degraded in Nef-expressing cells”.
